Measured values: patent US7727736B2, “Soluble phospholipids for use in clotting factor assays” (The University of North Carolina at Chapel Hill, priority 2003, dated 2010)

Columns and labels:
FXa [1] = biological target: T1, FXa (Homo sapiens, UniProt P00742); assay: Influence of DAPA on FXa activity in prothrombin activation; format: biochemical; set-up: Human prothrombin and factor Xa; purchased Hematologic Technologies Inc. (factor Xa); factor Va from human plasma, in house; conditions: in the presence of C6PS, concentration of DAPA used herein
T1 sequence (P00742 41-179 limits assumed): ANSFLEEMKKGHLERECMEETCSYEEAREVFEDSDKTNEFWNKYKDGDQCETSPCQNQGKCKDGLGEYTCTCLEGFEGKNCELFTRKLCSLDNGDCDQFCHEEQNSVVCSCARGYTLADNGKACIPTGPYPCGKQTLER
T1 sequence (P00742 235-488 limits assumed): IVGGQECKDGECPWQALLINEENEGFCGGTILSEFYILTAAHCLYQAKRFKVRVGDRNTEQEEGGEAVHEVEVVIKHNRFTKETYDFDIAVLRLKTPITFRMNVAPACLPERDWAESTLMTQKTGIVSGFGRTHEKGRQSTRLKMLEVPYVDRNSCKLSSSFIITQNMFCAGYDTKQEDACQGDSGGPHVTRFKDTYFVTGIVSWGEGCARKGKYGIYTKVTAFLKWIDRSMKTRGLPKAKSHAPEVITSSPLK
T1 sequence (P12259 29-737 partner limits assumed): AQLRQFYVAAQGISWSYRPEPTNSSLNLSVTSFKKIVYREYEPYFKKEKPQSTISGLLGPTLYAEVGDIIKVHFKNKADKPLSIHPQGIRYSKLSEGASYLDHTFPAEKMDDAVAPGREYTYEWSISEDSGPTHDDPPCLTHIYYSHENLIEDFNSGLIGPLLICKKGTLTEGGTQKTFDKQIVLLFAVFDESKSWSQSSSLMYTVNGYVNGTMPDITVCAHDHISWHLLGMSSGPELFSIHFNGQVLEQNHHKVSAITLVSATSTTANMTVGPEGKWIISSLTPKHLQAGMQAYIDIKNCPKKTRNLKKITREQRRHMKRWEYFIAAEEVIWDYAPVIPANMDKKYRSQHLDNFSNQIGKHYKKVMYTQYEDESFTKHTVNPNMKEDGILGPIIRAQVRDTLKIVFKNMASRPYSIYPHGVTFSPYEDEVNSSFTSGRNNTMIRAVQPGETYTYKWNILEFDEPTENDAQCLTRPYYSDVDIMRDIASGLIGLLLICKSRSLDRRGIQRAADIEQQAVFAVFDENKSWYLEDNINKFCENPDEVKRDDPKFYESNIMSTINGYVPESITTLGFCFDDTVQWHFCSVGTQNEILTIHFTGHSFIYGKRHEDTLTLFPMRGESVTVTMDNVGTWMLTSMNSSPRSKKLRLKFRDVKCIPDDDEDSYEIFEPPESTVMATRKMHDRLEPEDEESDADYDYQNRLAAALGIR
T1 sequence (P12259 1574-2224 partner limits assumed): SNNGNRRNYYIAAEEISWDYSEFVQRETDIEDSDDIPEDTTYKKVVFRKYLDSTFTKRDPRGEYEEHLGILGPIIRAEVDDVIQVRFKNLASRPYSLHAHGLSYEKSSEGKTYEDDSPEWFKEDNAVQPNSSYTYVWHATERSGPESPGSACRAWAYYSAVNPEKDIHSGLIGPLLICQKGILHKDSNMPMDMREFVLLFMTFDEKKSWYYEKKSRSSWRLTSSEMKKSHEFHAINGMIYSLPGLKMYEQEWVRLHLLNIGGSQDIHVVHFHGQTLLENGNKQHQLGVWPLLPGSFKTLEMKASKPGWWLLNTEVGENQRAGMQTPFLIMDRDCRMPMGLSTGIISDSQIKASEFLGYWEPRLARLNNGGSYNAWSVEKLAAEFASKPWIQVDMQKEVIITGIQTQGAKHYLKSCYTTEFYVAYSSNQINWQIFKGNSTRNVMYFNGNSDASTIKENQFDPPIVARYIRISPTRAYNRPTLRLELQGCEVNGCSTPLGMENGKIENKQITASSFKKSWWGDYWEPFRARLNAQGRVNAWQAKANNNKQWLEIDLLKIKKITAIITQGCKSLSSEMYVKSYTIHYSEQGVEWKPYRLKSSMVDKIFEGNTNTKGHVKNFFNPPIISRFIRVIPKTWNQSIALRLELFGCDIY
Method: Despite this, it has been shown that it provides rates of prothrombin activation in the presence of PS/PC membranes equivalent to those detected by activity measurements (Wu, et al. (2002) supra; Weinreb, et al. (2003) supra). To test whether DAPA influenced the activity of FXa in the presence of C6PS, the expected DAPA fluorescence was calculated based on the rate of appearance of thrombin and MzIIa, as detected by synthetic substrate assay as recorded in FIG. 6A. This calculation has been described (Wu, et al. (2002) supra) and its results, as applied to the data herein, are shown in the inset to FIG. 6A (filled circles) along with an experimental time-course of DAPA fluorescence change (open diamonds) reflecting prothrombin activation. Similar results were obtained at the other prothrombin concentrations examined.

FXa [2] = biological target: T1, FXa; set-up: Human prothrombin and factor Xa; purchased Hematologic Technologies Inc. (factor Xa); factor Va from human plasma, in house; conditions: Nesheim et al. (1979); cited from earlier work

**Q.** For `CCC1CCN(C(=O)C(CCCN=C(N)N)NS(=O)(=O)c2cccc3c(N(C)C)cccc23)CC1` (centres unmarked) [DAPA, dansylarginine-N-(3-ethyl-1,5-pentanediyl) amide], which “influence of DAPA on FXa activity” value (FXa [1]) is on record?
**A.** does not influence FXa activity to a measurable extent

**Q.** And the “inhibition of FXa by DAPA” value (FXa [2])?
**A.** weak competitive inhibitor
